Test results taken from PubChem BioAssay (NCI).
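48-hour exposure; five concentrations; linearly interpolated endpoints. GI50 marks 50% less growth. TGI marks complete inhibition of growth.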

Assays:
Assay in all cases: NCI-60 cell line screen, 48 h
ACHN renal = tested on: ACHN renal
EKVX NSCLC = tested on: EKVX NSCLC
HL-60(TB) leukemia = tested on: HL-60(TB) leukemia
MALME-3M melanoma = tested on: MALME-3M melanoma
NCI-H460 lung = tested on: NCI-H460 lung
SN12C renal = tested on: SN12C renal
TK-10 renal = tested on: TK-10 renal
U251 CNS = tested on: U251 CNS
UACC-257 melanoma = tested on: UACC-257 melanoma
UACC-62 melanoma = tested on: UACC-62 melanoma

Row | Structure (SMILES) | GI50 (ACHN renal) | TGI (ACHN renal) | GI50 (EKVX NSCLC) | TGI (EKVX NSCLC) | GI50 (HL-60(TB) leukemia) | TGI (HL-60(TB) leukemia) | GI50 (MALME-3M melanoma) | TGI (MALME-3M melanoma) | GI50 (NCI-H460 lung) | TGI (NCI-H460 lung) | GI50 (SN12C renal) | TGI (SN12C renal) | GI50 (TK-10 renal) | TGI (TK-10 renal) | GI50 (U251 CNS) | TGI (U251 CNS) | GI50 (UACC-257 melanoma) | TGI (UACC-257 melanoma) | TGI (UACC-62 melanoma) | GI50 (UACC-62 melanoma)
1 | CN(C)Cc1cccc(CN(C)C)[c]1[Sn]([Br])([c]1ccccc1)[c]1ccccc1 | 19.1 µM | 40.4 µM | 15.2 µM | 54.1 µM | 1.76 µM | 3.93 µM | 12.6 µM | 27.4 µM | 13.4 µM | 65.9 µM | 16.7 µM | 35.6 µM | 17.2 µM | 46.9 µM | 3.71 µM | 15.5 µM | 16 µM | 53.7 µM | – | –
2 | Cc1ccc(C(=O)CCC2C(=O)CC(C)(C)CC2=O)cc1 | – | > 100 µM | – | > 100 µM | – | – | – | – | – | > 100 µM | – | > 100 µM | – | > 100 µM | – | > 100 µM | – | > 100 µM | > 100 µM | –
3 | CC(=O)Nc1ccc2oc(=O)c3ccccc3c2c1 | – | > 100 µM | – | > 100 µM | – | > 100 µM | – | > 100 µM | – | > 100 µM | – | > 100 µM | – | – | – | > 100 µM | – | > 100 µM | > 100 µM | –
4 | NC(=O)c1cc(Cl)ccc1NC(=O)c1ccccc1-c1ccccc1 | 0.799 µM | 87.6 µM | – | – | 0.284 µM | 20.4 µM | 0.62 µM | 62.9 µM | 0.453 µM | 28.7 µM | 1.78 µM | > 100 µM | 3.69 µM | 48 µM | 0.65 µM | > 100 µM | 12.8 µM | 73.2 µM | 25.3 µM | 0.836 µM
5 | COc1cccc(-c2nc(-c3ccc(NC(=O)c4ccccc4)cc3)[nH]c2-c2ccnc(Br)c2)c1 | 2.95 µM | > 100 µM | 2.18 µM | 9.47 µM | 1.72 µM | 7.45 µM | 2.86 µM | > 100 µM | 3.53 µM | > 100 µM | – | – | 6.92 µM | > 100 µM | 2.1 µM | > 100 µM | 5.34 µM | > 100 µM | > 100 µM | 2.95 µM
6 | ClC1(c2ccccc2)c2ccc(Br)cc2-c2cc(Br)ccc21 | – | 29.6 µM | – | 32.3 µM | – | > 100 µM | – | 32.5 µM | – | 27.4 µM | – | 34.9 µM | – | 34.8 µM | – | 31.6 µM | – | 34.9 µM | – | –
7 | O=C(N/C(=C\c1ccc([N+](=O)[O-])cc1)c1nc2ccc(Cl)cc2[nH]1)c1ccccc1 | – | 66.8 µM | – | 74.6 µM | – | 48.5 µM | – | 97.9 µM | – | – | – | 41.9 µM | – | 88.7 µM | – | 34.9 µM | – | – | 50.1 µM | –
8 | Cc1cccc2c1O/C(=C\c1ncc([N+](=O)[O-])n1C)C2=O | 0.0595 µM | 0.341 µM | – | – | 0.216 µM | 1.13 µM | 0.185 µM | 0.474 µM | 0.132 µM | 0.581 µM | – | – | 0.257 µM | 0.66 µM | 0.371 µM | 1.64 µM | 0.542 µM | 5.2 µM | 1.09 µM | 0.316 µM
9 | C#Cc1cccc(Nc2ncnc3ccc(-c4cnc(Cl)c(NS(C)(=O)=O)c4)cc23)c1 | 0.442 µM | > 100 µM | 0.253 µM | 1.87 µM | 0.207 µM | 1.27 µM | 0.0924 µM | 0.862 µM | 0.572 µM | 11.7 µM | 0.292 µM | > 54 µM | – | – | 0.284 µM | 2.68 µM | 0.307 µM | 6.57 µM | 1.07 µM | 0.149 µM
10 | O=C1c2cccc3cc([N+](=O)[O-])cc(c23)C(=O)N1CCN1CCCC1 | 0.193 µM | 0.706 µM | 1.47 µM | 5.7 µM | 0.404 µM | > 100 µM | 0.18 µM | 1.07 µM | 0.161 µM | 0.902 µM | 0.228 µM | 1.11 µM | 0.697 µM | 2.52 µM | 0.315 µM | – | – | – | 1.71 µM | 0.322 µM
11 | CCOC(=O)C#Cc1ccc([N+](=O)[O-])cc1 | – | 10.2 µM | – | 4.71 µM | – | 4.1 µM | – | – | – | 29.2 µM | – | 3.39 µM | – | 27.4 µM | – | 3 µM | – | 10.8 µM | 4.05 µM | –
12 | CC1(C)CCC2(C(=O)O)CC[C@]3(C)C(=CCC4C5(C)CC[C@H](OC6OC(C(=O)O)C(O)C(OC7OC(CO)C(O)C(O)C7O)C6OC6OC(CO)C(O)C(O)C6O)C(C)(C)C5CCC43C)C2C1 (some centres not stated) | – | – | > 100 µM | > 100 µM | – | – | – | – | > 100 µM | > 100 µM | 84 µM | > 100 µM | > 100 µM | > 100 µM | 32.3 µM | 89.4 µM | > 100 µM | > 100 µM | 50.7 µM | 23 µM
13 | Oc1cccc(Cn2c(-c3cccc(O)c3O)nc3ccccc32)c1O | 2.57 µM | 11.8 µM | – | – | – | – | – | – | 3.59 µM | 16.3 µM | 3.4 µM | 16.3 µM | 1.88 µM | 7.52 µM | 4.44 µM | 26.2 µM | 19.3 µM | 50.1 µM | 12.6 µM | 3.1 µM
14 | Cc1cccc2c1NC(=O)[C@@]21[C@H](C(=O)c2ccccc2)[C@]2(C(=O)Nc3ccccc32)[C@H]2CCCN21 | 19.6 µM | 73 µM | 40.6 µM | > 100 µM | 56.8 µM | > 100 µM | 31.4 µM | > 100 µM | 24.6 µM | > 100 µM | – | – | 36.8 µM | > 100 µM | 28 µM | 92 µM | > 100 µM | > 100 µM | > 100 µM | 12.5 µM
15 | NCCCn1c2c(c3cc4c(cc3c1=O)OCO4)C(=O)c1ccccc1-2 | 0.119 µM | 1.22 µM | 0.842 µM | 2.55 µM | 1.48 µM | 2.93 µM | – | – | 2.06 µM | 4.11 µM | 0.975 µM | 2.49 µM | 1.98 µM | 5.75 µM | 0.321 µM | 0.753 µM | 1.38 µM | 4.7 µM | 5.5 µM | 2.06 µM
